What was measured:
IFV-B = assay: Virus inhibition assay, IFV-B on MDCK cells; type: cell-based; details: unidentified influenza virus, read-out: EC50 (µM) (95% CI)
HCoV-OC43 [1] = assay: Time-of-addition assay, HCoV-OC43; type: cell-based, human coronavirus; details: for EC50: Betacoronavirus 1, HCoV-OC43
HCoV-OC43 [2] = assay: Virus inhibition assay, HCoV-OC43 on A549 cells; type: cell-based, human coronavirus; details: Betacoronavirus 1, read-out: EC50 (µM) (95% CI)
IFV-A H1N1 [3] = assay: Virus inhibition assay (focus reduction), IFV-A H1N1 on MDCK cells; type: cell-based; details: Influenza A virus, read-out: EC50 (µM) (95% CI)
[4] = test system: human bronchial epithelium (MucilAir); assay: LDH cytotoxicity assay on 3D human bronchial epithelium; type: cell-based; details: 6 µM and 12 µM, harvested daily up to 72 h
[5] = Cell viability MTS assay on MDCK cells; details: dog
RSV-A2 [6] = assay: Anti-RSV activity on a 3D model of human bronchial epithelium; type: cell-based, respiratory syncytial virus; details: for Reduction in RSV progeny: 72 h post-infection, 10,000 PFUs
RSV-A2 [7] = assay: Virus inhibition assay, RSV-A2 on A549 cells; type: cell-based; details: human respiratory syncytial virus, read-out: EC50 (µM) (95% CI)
RSV-B = assay: Virus inhibition assay, RSV strain B WV/14617/85 on Hep-2 cells; type: cell-based; details: human respiratory syncytial virus; RSV B WV/14617/85, Hep-2 cells; read-out: EC50 (µM) (95% CI)
in vitro = details: human
[8] = Cell viability MTS assay on MRC-5 cells; type: cell-based; details: human, same conditions as HCoV inhibition assay, read-out: CC50 (µM) (95% CI)
HCoV-OC43 [9] = assay: Virus inactivation (virucidal) assay, HCoV-OC43; type: cell-based, human coronavirus; details: EC90 dose, 2 h incubation with 200,000 FFUs
[10] = Cell viability MTS assay on Hep-2 cells; details: human
RSV-A2 [11] = assay: Immunofluorescence of dsRNA and viral protein, RSV-A2 in Hep-2 cells; type: cell-based, respiratory syncytial virus; details: EC50 (2µM) or 2-fold EC90 dose (30µM), 24h post-infection
RSV-A2 [12] = assay: Virus inhibition assay (plaque reduction), RSV-A2 on Hep-2 cells; type: cell-based; details: human respiratory syncytial virus; RSV-A2, Hep-2 cells; read-out: EC50 (µM) (95% CI)
IFV-A H1N1 [13] = assay: Virus inhibition assay, IFV-A H1N1 on A549 cells; type: cell-based; details: Influenza A virus, read-out: EC50 (µM) (95% CI)
Hep-2 cells = assay: Cytotoxic effect microscopically visible in the RSV-A2 screening; type: cell-based, human; set-up: key: -: Cytotoxic effect microscopically visible; details: 33 µM
RSV-A2 [14] = assay: Virus inactivation (virucidal) assay, RSV-A2; type: cell-based, respiratory syncytial virus; details: EC90 dose, 2 h incubation with 200,000 PFUs
IFV-A H3N2 = assay: Virus inhibition assay, IFV-A H3N2 on MDCK cells; type: cell-based; details: Influenza A virus, read-out: EC50 (µM) (95% CI)
HCoV-OC43 [15] = assay: Virus inhibition assay (focus reduction), HCoV-OC43 on MRC-5 cells; type: cell-based, human coronavirus; details: Betacoronavirus 1, OC43, MRC5, read-out: EC50 (µM) (95% CI)
RSV-A2 [16] = assay: Time-of-addition assay, RSV-A2; type: cell-based, respiratory syncytial virus
HCoV-229E = assay: Virus inhibition assay, HCoV-229E on MRC-5 cells; type: cell-based; details: Human coronavirus 229E, MRC5, read-out: EC50 (µM) (95% CI)

Work on `CC(C)(CC(=O)O)NC(=O)c1cc(-c2ccccc2)c(=O)n2c1sc1ccc(OC3CCCCC3)cc12` [Compound 1] yielded an EC50 (IFV-B) of 4.21 µM, an EC50 (HCoV-OC43 [1]; after infection, read-out: EC50, post-treatment) of 7.5 µM and an EC50 (HCoV-OC43 [1]; during infection, read-out: EC50, co-treatment) of 16.3 µM. The “Activity against HCoV-OC43, treatment before the infection” value (HCoV-OC43 [1]; pre-treatment) was “did not exert inhibitory activity”, the EC50 (HCoV-OC43 [2]) was 8.14 µM and the EC50 (IFV-A H1N1 [3]) was 5.49 µM. The “Cytotoxic effect on the epithelia (LDH assay on basal media)” value [4] was “did not exert any cytotoxic effect”, the CC50 [5] was 41.1 µM and the “Reduction in RSV progeny” value (RSV-A2 [6]; 6 µM every 24 h) was 1.1 log. The “Reduction in RSV progeny” value (RSV-A2 [6]; 12 µM every 24 h) was 1.5 log, the “Morphology of the bronchial epithelial cells in infected treated sample” value (RSV-A2 [6]; brightfield images, compared to infected untreated) was “sufficiently preserved” and the “Anti-RSV immunopositivity of the epithelia” value (RSV-A2 [6]; end of experiment, immunofluorescence) was “reduction in immunopositivity”. For the same compound, the EC50 (RSV-A2 [7]) was 7.78 µM, the EC50 (RSV-B) was 4.23 µM and the CC50 (in vitro) was 57.6 µM. It also gave a CC50 (in vitro; CC50 (µM) (95% CI), A549 cells, HCoV OC43 assay conditions) of 150 µM, a CC50 (in vitro; CC50 (µM) (95% CI), A549 cells, RSV A2 assay conditions) of 30.8 µM and a CC50 [8] of 59.6 µM. For the same compound, the “Virucidal activity: HCoV-OC43 titer” value (HCoV-OC43 [9]) was “modest—although negligible—reduction”, the CC50 [10] was 61.3 µM and the “Effect on nucleic acid replication and viral protein production of RSV-A2” value (RSV-A2 [11]) was “did not inhibit”. The EC50 (RSV-A2 [12]) was 1.3 µM, the EC50 (IFV-A H1N1 [13]) was 6.29 µM and the “Cytotoxic effect microscopically visible” value (Hep-2 cells) was “- ^a”. For the same compound, the “Virucidal activity on extracellular RSV particle” value (RSV-A2 [14]) was “did not directly inactivate”, the EC50 (IFV-A H3N2) was 5.96 µM and the EC50 (HCoV-OC43 [15]) was 4.83 µM. The “Activity against RSV, pre-treatment” value (RSV-A2 [16]; compound added 2 h before infection) was “not active”, the “Activity against RSV, co-treatment” value (RSV-A2 [16]; compound added with virus inoculum, first 2 h of infection) was “not active” and the EC50 (RSV-A2 [16]; human respiratory syncytial virus, RSV, treated 72 h after removal of viral inoculum, read-out: EC50, post-treatment) was 8.2 µM. It also gave an EC50 (HCoV-229E) of 45.3 µM.

Source: paper PMC12299477 (Viruses, 2025)
